Results on three molecules are retold here after ChEMBL document CHEMBL5649166, “RIP3 induces apoptosis independent of pronecrotic kinase activity” (Mol Cell, 2014).

The target of experiment [1] is T1, Ephrin type-A receptor 1 (Homo sapiens) (UniProt P21709).
T1 sequence (whole entry): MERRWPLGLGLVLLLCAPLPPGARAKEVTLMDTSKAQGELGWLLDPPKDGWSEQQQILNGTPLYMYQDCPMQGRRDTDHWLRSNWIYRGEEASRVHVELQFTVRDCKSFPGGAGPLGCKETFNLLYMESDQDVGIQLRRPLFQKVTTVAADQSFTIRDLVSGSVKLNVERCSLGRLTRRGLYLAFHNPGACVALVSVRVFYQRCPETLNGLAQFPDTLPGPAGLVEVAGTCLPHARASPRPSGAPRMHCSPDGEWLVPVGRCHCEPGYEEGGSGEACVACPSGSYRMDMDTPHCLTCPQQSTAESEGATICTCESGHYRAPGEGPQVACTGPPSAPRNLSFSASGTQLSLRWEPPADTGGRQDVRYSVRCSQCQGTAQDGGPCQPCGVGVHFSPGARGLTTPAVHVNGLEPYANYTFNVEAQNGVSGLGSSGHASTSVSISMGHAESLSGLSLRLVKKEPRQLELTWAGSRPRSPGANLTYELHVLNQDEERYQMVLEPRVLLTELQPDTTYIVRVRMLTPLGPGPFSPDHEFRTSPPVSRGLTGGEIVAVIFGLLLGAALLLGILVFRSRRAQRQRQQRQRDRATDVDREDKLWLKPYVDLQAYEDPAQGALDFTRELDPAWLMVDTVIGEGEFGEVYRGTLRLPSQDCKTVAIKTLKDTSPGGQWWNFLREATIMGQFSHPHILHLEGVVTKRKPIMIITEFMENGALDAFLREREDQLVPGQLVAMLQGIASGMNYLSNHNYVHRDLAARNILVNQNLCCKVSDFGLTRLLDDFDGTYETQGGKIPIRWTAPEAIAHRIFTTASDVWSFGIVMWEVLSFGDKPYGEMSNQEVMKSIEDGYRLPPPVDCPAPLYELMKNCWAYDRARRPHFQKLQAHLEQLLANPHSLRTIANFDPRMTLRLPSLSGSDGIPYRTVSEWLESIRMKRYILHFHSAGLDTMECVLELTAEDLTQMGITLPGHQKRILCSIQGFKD
The experiment in a line: Residual activity of human EPHA1 using poly[Glu:Tyr] (4:1) as substrate at 1 uM in presence of 32P-ATP by Hotspot assay relative to control.

In experiment [2] the target is Serine/threonine-protein kinase N1 (Homo sapiens) (UniProt Q16512). The experiment in a line: Inhibition of human PKN1/PRK1 using KKLNRTLSVA as substrate at 1 uM in presence of 32P-ATP by Hotspot assay relative to control; values are per cent of control.
The target of experiment [3] is Serine/threonine-protein kinase Chk2 (Homo sapiens) (UniProt O96017). The experiment in a line: Inhibition of human CHK2 using KKKVSRSGLYRSPSMPENLNRPR as substrate at 1 uM in presence of 32P-ATP by Hotspot assay relative to control; values are per cent of control.
Experiment [4] deals with T2, Myotonin-protein kinase (Homo sapiens) (UniProt Q09013).
T2 sequence (whole entry): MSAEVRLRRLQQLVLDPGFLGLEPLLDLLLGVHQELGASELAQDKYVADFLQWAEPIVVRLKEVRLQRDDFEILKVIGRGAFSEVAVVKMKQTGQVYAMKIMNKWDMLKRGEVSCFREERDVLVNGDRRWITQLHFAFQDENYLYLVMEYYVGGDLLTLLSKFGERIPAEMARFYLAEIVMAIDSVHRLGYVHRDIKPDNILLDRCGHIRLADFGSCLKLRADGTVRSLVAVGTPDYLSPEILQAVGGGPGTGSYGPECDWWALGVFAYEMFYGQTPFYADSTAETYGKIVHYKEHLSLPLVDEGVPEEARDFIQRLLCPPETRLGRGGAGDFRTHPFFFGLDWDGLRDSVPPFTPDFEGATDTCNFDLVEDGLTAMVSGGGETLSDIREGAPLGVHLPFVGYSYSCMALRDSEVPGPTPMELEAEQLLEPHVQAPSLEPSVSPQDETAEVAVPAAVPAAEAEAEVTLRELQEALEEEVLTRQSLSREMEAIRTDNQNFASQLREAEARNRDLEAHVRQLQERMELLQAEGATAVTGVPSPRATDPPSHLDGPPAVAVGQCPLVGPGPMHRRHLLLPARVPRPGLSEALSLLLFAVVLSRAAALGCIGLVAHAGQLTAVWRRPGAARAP
The experiment in a line: Inhibition of human DMPK using KKRNRRLSVA as substrate at 1 uM in presence of 32P-ATP by Hotspot assay relative to control; values are per cent of control.

Experiment [5] concerns the target T3, Ephrin type-B receptor 4 (Homo sapiens) (UniProt P54760).
T3 sequence (whole entry): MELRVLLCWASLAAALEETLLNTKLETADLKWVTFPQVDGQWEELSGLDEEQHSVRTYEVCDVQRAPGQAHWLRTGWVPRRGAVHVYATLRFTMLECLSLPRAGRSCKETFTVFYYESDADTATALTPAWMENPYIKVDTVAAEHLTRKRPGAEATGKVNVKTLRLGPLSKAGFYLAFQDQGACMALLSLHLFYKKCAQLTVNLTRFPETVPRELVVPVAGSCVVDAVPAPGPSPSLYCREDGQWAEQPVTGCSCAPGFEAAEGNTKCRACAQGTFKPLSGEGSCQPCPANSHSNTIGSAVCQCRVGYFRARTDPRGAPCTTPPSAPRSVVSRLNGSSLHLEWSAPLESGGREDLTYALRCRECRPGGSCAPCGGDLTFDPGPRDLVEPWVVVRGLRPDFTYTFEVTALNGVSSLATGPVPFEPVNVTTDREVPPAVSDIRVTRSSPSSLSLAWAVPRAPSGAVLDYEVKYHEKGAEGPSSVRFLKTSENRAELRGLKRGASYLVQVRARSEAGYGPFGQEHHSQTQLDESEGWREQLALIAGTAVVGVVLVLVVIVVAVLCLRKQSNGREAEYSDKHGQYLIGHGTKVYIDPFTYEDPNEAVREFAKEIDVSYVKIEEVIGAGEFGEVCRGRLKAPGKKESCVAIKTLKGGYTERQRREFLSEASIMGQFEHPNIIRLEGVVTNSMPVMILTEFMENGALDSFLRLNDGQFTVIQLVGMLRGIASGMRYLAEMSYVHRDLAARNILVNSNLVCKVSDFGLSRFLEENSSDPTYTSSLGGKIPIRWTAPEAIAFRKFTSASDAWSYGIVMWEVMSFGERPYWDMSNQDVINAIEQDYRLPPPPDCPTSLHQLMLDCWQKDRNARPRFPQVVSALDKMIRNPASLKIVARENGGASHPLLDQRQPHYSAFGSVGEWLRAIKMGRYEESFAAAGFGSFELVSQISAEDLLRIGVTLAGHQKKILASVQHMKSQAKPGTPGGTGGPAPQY
The experiment in a line: Inhibition of human EPHB4 using poly[Glu:Tyr] (4:1) as substrate at 1 uM in presence of 32P-ATP by Hotspot assay relative to control; values are per cent of control.

Chain of Serine/threonine-protein kinase N1 (Homo sapiens) (Q16512 2-942 limits assumed): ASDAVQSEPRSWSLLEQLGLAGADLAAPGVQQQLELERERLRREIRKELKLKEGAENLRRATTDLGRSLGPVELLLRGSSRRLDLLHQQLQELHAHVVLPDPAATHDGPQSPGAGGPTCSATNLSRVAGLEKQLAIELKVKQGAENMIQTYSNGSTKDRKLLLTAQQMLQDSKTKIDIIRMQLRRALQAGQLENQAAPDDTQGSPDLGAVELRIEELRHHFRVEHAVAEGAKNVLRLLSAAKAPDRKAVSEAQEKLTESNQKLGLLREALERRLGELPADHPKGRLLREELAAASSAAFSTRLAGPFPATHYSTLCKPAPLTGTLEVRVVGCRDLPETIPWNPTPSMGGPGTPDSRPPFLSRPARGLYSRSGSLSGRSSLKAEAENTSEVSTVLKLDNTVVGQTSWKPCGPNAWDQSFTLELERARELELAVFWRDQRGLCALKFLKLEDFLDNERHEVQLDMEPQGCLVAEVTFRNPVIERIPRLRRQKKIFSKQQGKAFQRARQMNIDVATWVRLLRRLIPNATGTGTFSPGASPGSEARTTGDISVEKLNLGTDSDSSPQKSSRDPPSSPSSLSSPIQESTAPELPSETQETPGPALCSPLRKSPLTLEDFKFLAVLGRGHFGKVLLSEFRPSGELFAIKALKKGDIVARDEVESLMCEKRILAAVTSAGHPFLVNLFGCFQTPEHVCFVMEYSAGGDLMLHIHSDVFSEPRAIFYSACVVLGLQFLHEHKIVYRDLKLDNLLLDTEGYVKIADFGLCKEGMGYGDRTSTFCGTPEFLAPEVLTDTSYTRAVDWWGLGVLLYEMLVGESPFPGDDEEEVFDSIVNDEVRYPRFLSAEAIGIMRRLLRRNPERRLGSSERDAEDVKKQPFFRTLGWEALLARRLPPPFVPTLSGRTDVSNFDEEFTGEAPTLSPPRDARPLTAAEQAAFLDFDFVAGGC
Chain of Serine/threonine-protein kinase Chk2 (Homo sapiens) (O96017 whole entry): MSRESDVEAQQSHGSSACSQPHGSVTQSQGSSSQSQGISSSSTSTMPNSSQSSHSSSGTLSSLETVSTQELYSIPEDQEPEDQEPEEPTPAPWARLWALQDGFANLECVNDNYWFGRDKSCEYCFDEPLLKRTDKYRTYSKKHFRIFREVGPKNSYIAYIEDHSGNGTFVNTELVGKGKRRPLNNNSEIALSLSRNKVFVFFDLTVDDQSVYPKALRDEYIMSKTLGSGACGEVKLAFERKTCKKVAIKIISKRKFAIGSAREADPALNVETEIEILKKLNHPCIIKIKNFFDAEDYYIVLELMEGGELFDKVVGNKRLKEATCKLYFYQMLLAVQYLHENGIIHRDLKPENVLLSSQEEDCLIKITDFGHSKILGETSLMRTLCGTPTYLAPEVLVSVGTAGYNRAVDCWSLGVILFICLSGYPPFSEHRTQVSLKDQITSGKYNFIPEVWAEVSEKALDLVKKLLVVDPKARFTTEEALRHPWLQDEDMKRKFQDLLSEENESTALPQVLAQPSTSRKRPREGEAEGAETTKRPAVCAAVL

One may read the residual activity as the signal under treatment as a percentage of the control signal. Consider `CC(C)S(=O)(=O)c1ccc2nccc(Nc3ccc4scnc4c3)c2c1`, for which the residual activity in experiment [1] was found to be 53.9%; in experiment [2] it was 95.3%; in experiment [3] it was 89.6%; in experiment [4], 103%; in experiment [5], 60.2%.
With `CNC(=O)c1ccc2c(c1)ncn2-c1ccc(CC(=O)OC(C)(C)C)cc1`, the residual activity in experiment [1] amounted to 84.8%; in experiment [2], 97.7%; in experiment [3] it was 94%; in experiment [4], 107%; in experiment [5], 89.7%.
As for `Cc1cc(-c2cnc(N)c3c(-c4ccc5scnc5c4)csc23)n(C)n1`, the residual activity stood at 56.5% in experiment [1]; 96.7% in experiment [2]; 97.3% in experiment [3]; 92.1% in experiment [4]; 56.3% in experiment [5].
